The source of these data is article PMC8304761, “Development of an Androgen Receptor Inhibitor Targeting the N-Terminal Domain of Androgen Receptor for Treatment of Castration Resistant Prostate Cancer” (Cancers, 2021).

pIC50: −log10 of the molar value. Where only a bound is given, the exact number is not on record here.

Assay [1] deals with prostate specific antigen (PSA). The experiment in a line: Secreted PSA levels in LNCaP cells. The class given is cell-based. The following applies: Homo sapiens; LNCaP cells; read-out: IC50, secreted PSA levels. The text has this:
Next, we tested the activity of VPC-220010 against full length AR using an AR-eGFP transcription assay in LNCaP cells. […] To further validate VPC-220010 as an AR inhibitor, we evaluated its ability to reduce the production of endogenous prostate specific antigen (PSA) in PCa cell lines. PSA is an AR-regulated serine protease and is widely used as a biomarker for PCa.

Another assay deals with LNCaP cells. Nature of the assay: Proliferation assay (PrestoBlue), LNCaP. The class given is cell-based. Conditions: Homo sapiens, 72 h, R1881, Figure 2C, read-out: IC50, viability of LNCaP cells. On the procedure: (§1) Proliferation assay: LNCaP, 22Rv1 and PC3 cells were plated at 3000 cells per well in RPMI1640 containing 5% CSS in a 96-well plate, treated with 0.1 nm R1881 (a synthetic androgen) and test compounds (0–25 μM) for 72 h. Cell proliferation was determined using the PrestoBlue^TM cell proliferation assay following incubation with the compound […] over 72 h. In brief, 30 μL of the PrestoBlue^TM reagent was added to cells in each well of the 96-well plate containing 200 μL of media and incubated for 60 min at 37 °C in 5% CO2. The production of […]. Fluorescence measurement was read on a TECAN F200.
(§2) We then evaluated the effect of VPC-220010 on the proliferation of androgen-dependent LNCaP and ARV7-dependent 22Rv1 cells.

The next assay has as its system 22Rv1 cells. Nature of the assay: Proliferation assay (PrestoBlue), 22Rv1. The class given is cell-based. The following applies: Homo sapiens, 72 h, Figure 2D, read-out: IC50, viability of 22Rv1 cells. The method, then:
as §1, §2

The next assay has as its target T1, AR-NTD (Gal4DBD-AR1-558) (Homo sapiens, UniProt P10275).
T1 construct: expressed in transfected cells; host or cells: LNCaP
T1 sequence (P10275 1-558): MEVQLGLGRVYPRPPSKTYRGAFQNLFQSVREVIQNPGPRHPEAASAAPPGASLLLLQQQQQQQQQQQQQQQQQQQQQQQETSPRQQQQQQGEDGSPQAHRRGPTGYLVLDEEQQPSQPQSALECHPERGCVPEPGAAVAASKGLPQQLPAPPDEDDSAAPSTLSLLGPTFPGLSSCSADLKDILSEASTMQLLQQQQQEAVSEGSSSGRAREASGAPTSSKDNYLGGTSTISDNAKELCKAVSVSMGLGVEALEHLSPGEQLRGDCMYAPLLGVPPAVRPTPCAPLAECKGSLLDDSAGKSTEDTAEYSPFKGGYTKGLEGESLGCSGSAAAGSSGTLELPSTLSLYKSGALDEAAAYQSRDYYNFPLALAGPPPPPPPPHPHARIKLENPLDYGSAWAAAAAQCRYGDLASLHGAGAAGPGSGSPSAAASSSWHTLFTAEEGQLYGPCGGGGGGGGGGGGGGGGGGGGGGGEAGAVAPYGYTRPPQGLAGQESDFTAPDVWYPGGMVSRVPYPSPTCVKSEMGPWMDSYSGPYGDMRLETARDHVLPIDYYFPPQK
The experiment in a line: NTD-transactivation assay (mammalian two hybrid, forskolin) in LNCaP cells. The class given is cell-based. Conditions: varying concentrations; Figure 3. On the procedure:
Following 48 h incubation, cells were then treated with compounds at various concentrations and 0.1 nm R1881 (in 100% ethanol) for 24 h for AR assays. GR, ER, and PR activation was stimulated with 1 nm dexamethasone, estradiol, or progesterone, respectively. […] Cell lysis was carried out with 60 μL of 1× passive lysis buffer/well (Promega Madison, WI, USA). 20 μL of cell lysate from each well were mixed with 50 μL of luciferase assay reagent (Promega Madison, WI, USA), and luminescence was recorded on a TECAN M200pro plate reader.
To confirm the proposed mechanism of VPC-220010 we tested the effect of this compound on NTD-mediated transactivation. […] When incubated with forskolin, this system induces transcription activity through phosphorylation of the AR-NTD [10].

Assay [2] deals with ARV7-regulated genes UBE2C, AKT1 and CDC20. Nature of the assay: qPCR of ARV7-regulated genes in 22Rv1 cells. The class given is cell-based, human. Conditions: Figure 5B.
Procedure: Total RNA was extracted from cells with Trizol and the Qiagen RNeasy RNA Extraction Kit (Qiagen Germantown, MD, USA). Approximately 8 × 10^6 cells were collected per sample, with three biological replicates for each treatment. The concentrations and the qualities of the RNA samples were checked by Nanodrop. cDNA was prepared busing MMLV-Reverse Transcriptase (Thermo Fisher Scientific, Waltham, MA, USA). qRT-PCR was performed with LightCycler® 480 SYBR Green I Master (Roche, Basel, Switzerland).
The subject of the next assay is PSA. On the set-up: method as in doi:10.1200/JCO.2019.37.7_suppl.257. The following applies: patients, metastatic CRPC, low levels of circulating EPI-506; cited from earlier work.

Regarding `CC(C)(c1ccc(OCC(O)CO)cc1)c1ccc(OCC(O)CCl)cc1` (stereo not drawn) [EPI-001, reference compound], the values for the pIC50 (in assay [1]; in the assay with LNCaP cells; in the assay with 22Rv1 cells) were less than 4.60, less than 4.60 and less than 4.30, respectively. Also, the “AR-NTD activity induced by forskolin” value on AR-NTD (Gal4DBD-AR1-558) is on record as “inhibited”. Besides, the “expression of ARV7-regulated genes UBE2C, AKT1 and CDC20 (qPCR)” value in assay [2] is “inhibited”.
With `CC(=O)OC[C@H](COc1ccc(C(C)(C)c2ccc(OC[C@@H](CCl)OC(C)=O)cc2)cc1)OC(C)=O` [EPI-506], in the assay on PSA, the “decrease in PSA” value is on record as 4–29%.
